{"source": "paper PMC3387161", "about": "“Small Molecules Targeted to a Non-Catalytic “RVxF” Binding Site of Protein Phosphatase-1 Inhibit HIV-1” (PLoS ONE, 2012)", "key": {"[1]": {"target": "T1, recombinant PP1α (Oryctolagus cuniculus, UniProt P62139)", "T1 construct": "purchased New England Biolabs, Ipswich, MA", "T1 sequence (P62139 whole entry)": "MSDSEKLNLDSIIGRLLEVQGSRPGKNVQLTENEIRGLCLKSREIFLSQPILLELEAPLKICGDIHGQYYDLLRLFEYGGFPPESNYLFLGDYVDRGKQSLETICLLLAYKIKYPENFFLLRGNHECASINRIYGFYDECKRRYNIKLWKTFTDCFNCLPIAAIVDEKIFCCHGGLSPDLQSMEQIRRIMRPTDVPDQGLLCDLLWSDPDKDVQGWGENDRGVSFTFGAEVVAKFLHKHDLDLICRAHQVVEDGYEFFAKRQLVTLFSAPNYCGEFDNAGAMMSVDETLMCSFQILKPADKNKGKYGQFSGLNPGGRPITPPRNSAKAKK", "assay": "Malachite green dephosphorylation of generic KT(pT)IRR peptide by PP1α", "assay_type": "biochemical", "details": "1H4 300 µM, KT(pT)IRR 3 µM; control 1.4", "method": "To determine whether 1H4 has an effect on the enzymatic activity of PP1, we used recombinant PP1α and a generic substrate, phosphorylated KT(pT)IRR peptide which is recognized equally well by PP1 and PP2A [13]. The KT(pT)IRR peptide (3 µM) was efficiently dephosphorylated by PP1α (Fig. 6A, V0 = 1.4 µM·min^−1). […] We further investigated the effect of 1H4 on PP1 enzymatic activity by analyzing the initial velocity versus KT(pT)IRR peptide substrate concentration plots in the absence and presence of 1H4 that were approximated by Michaelis-Menten equation (Fig. 6B) and also visualized in Lineweaver-Burk representation (Fig. 6C).\nFigure 6 1H4 has no effect on PP1 enzymatic activity. […] The amount of released phosphate was quantified by the absorbance and phosphate concentration was recalculated using standards. Initial velocity was calculated by linear regression in Prism. […] The amount of released phosphate was quantified with malachite green. The VMAX and Km were calculated by non-linear regression analysis for Michaelis-Menten equation in Prism. […]\nInhibition data were analyzed using GraphPad Prism 4 software (GraphPad Software, La Jolla, CA). The IC50 values were determined from a sigmoidal dose-response (variable slope) curve using four parameter logistic equation Y = Bottom+(Top-Bottom)/([…]). […]"}, "[2]": {"system": "HIV-1 NL4-3", "assay": "HIV-1 replication in MT4 cells, reverse transcriptase activity", "details": "HIV-1 NL4-3, tested at 2, 10, 25 µM, RT activity over 8 days"}, "[3]": {"target": "PP1 association with Tat, NIPP1 and PNUTS (Homo sapiens, UniProt P62136)", "sequence (P62136 2-330)": "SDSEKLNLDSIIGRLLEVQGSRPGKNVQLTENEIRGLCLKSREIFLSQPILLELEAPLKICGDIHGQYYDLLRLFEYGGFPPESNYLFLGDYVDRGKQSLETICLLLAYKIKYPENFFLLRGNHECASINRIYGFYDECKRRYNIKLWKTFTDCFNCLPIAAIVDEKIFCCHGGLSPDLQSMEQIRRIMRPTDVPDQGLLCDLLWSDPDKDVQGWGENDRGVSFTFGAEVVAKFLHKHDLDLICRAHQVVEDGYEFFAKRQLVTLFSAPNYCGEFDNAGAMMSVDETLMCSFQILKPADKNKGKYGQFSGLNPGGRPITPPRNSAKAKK", "assay_type": "cell-based", "details": "Tat-transfected 293T cells, LC-MS peak amplitude"}}, "data": [{"molecule": "COCCNC(=O)COC(=O)c1c2c(nc3ccccc13)/C(=C/c1ccc(O)cc1)CCC2", "note": "[1H4]", "values": [{"measurement": "V0 of KT(pT)IRR peptide dephosphorylation by PP1α in presence of compound", "setting": "[1]", "value": 1.3, "unit": "µM·min^-1"}, {"measurement": "Concentration from which HIV-1 replication is inhibited", "setting": "[2]", "value": "≥ 10", "unit": "µM"}, {"measurement": "Interaction of PP1 with PNUTS and NIPP1", "setting": "[3]", "value": "without any effect on the interaction of PP1 with PNUTS or NIPP1"}, {"measurement": "Tat association with PP1 (microcystin precipitation)", "setting": "[3]", "value": "Tat association was reduced"}]}]}
